Reference: ChEMBL document CHEMBL5291721, “A preclinical secondary pharmacology resource illuminates target-adverse drug reaction associations of marketed drugs” (Nat Commun, 2023)

Experiments:
[1] = target: T1, 5-hydroxytryptamine receptor 1A (Homo sapiens, UniProt P08908)
T1 sequence (P08908 whole entry): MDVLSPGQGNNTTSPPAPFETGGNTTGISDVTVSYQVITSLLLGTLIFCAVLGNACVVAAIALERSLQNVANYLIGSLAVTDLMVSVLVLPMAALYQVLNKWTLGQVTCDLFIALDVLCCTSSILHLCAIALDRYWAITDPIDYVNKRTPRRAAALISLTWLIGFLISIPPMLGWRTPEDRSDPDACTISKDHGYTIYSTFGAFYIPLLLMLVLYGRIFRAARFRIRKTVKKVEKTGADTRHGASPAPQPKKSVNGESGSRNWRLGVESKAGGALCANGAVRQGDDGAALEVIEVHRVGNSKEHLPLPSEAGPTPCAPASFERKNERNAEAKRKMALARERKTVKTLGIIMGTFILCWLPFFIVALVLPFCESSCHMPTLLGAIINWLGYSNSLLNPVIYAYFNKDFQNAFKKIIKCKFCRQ

[2] = target: Histamine H2 receptor (Homo sapiens, UniProt P25021)
Chain of Histamine H2 receptor (P25021 whole entry): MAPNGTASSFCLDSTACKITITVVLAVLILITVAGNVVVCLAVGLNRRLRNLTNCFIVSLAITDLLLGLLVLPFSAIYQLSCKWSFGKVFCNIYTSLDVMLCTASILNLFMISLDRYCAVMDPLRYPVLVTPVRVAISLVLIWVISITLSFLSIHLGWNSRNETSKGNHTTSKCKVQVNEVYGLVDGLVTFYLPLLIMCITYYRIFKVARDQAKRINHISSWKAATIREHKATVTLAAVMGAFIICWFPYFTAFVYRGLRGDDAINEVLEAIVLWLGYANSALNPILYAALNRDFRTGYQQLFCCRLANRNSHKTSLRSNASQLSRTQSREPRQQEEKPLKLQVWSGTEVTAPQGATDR

[3] = target: D(1A) dopamine receptor (Homo sapiens, UniProt P21728)
Chain of D(1A) dopamine receptor (P21728 whole entry): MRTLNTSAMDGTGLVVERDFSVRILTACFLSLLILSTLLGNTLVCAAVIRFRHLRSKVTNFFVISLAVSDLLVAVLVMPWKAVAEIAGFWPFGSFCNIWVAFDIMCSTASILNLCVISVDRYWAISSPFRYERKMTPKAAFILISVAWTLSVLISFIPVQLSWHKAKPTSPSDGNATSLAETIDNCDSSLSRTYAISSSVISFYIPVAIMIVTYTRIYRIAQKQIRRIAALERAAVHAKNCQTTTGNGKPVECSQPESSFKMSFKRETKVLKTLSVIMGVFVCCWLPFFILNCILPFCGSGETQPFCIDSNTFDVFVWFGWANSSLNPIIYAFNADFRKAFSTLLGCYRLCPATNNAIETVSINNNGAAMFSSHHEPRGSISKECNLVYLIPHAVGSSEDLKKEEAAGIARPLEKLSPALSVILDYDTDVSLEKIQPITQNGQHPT

[4] = target: T2, Progesterone receptor (Homo sapiens, UniProt P06401)
T2 sequence (P06401 whole entry): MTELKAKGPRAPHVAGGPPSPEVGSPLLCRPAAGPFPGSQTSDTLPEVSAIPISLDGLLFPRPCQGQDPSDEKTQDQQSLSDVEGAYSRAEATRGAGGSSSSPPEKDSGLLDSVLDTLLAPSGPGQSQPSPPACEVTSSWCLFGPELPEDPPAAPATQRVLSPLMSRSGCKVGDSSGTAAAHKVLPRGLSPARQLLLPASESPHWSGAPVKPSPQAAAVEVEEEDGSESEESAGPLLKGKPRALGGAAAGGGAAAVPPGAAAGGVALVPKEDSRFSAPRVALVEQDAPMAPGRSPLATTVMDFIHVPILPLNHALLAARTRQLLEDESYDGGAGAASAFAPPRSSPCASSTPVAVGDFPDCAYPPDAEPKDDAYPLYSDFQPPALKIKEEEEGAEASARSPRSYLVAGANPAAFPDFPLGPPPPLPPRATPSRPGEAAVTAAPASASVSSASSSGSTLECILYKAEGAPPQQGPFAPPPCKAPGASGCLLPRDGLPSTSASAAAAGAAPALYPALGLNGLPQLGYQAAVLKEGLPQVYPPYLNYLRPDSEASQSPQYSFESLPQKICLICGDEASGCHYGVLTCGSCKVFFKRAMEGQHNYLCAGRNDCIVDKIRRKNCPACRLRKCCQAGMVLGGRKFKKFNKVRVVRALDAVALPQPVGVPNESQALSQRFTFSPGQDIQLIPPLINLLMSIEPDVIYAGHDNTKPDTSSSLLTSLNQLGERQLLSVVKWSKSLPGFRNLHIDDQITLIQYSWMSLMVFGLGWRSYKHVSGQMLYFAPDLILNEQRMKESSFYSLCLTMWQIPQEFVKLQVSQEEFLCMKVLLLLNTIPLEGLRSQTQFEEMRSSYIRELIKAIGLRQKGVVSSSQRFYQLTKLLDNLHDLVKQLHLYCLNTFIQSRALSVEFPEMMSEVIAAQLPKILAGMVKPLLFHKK

[5] = target: Mu-type opioid receptor (Homo sapiens, UniProt P35372); assay: biochemical; format: functional
Chain of Mu-type opioid receptor (P35372 whole entry): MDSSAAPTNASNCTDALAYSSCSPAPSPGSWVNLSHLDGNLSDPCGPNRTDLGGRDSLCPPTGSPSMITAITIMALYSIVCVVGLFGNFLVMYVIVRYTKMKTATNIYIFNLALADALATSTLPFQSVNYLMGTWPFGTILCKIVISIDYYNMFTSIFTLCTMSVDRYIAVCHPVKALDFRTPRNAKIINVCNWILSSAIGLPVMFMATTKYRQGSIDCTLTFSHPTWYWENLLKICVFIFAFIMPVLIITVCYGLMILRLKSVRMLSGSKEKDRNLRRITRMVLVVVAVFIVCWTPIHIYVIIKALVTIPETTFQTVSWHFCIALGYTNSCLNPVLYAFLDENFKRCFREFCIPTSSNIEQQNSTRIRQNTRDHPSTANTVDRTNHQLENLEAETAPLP

[6] = target: Gamma-aminobutyric acid receptor subunit alpha-1/alpha-2/beta-2/gamma-2 (Homo sapiens, UniProt P14867+P18507+P47869+P47870); format: functional, cell-based
Chain of Gamma-aminobutyric acid receptor subunit alpha-1/alpha-2/beta-2/gamma-2 (P14867 whole entry): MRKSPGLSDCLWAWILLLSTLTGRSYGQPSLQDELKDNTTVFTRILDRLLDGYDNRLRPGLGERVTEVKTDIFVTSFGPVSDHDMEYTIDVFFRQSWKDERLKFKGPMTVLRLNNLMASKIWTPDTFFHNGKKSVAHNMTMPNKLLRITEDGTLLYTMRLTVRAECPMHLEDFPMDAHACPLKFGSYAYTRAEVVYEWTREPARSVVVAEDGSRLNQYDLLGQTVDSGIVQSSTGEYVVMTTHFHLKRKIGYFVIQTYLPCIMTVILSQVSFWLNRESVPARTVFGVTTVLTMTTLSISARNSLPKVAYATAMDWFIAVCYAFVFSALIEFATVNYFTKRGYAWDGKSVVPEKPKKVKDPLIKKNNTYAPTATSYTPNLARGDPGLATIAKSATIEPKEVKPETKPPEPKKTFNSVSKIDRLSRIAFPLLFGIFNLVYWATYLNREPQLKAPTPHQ
Chain of Gamma-aminobutyric acid receptor subunit alpha-1/alpha-2/beta-2/gamma-2 (P47870 whole entry): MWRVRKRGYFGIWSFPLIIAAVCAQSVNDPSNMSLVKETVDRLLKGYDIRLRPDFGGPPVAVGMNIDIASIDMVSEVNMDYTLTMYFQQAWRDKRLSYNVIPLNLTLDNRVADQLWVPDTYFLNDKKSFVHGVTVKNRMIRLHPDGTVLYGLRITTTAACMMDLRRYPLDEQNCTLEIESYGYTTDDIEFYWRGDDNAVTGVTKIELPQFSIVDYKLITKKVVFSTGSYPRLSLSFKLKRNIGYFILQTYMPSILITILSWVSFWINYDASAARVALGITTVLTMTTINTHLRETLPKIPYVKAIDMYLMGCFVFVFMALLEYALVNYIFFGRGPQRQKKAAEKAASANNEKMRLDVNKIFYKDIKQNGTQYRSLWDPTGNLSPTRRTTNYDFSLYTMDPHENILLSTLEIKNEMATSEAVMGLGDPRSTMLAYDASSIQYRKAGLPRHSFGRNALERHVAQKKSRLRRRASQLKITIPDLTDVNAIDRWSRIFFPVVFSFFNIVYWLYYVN
Chain of Gamma-aminobutyric acid receptor subunit alpha-1/alpha-2/beta-2/gamma-2 (P18507 whole entry): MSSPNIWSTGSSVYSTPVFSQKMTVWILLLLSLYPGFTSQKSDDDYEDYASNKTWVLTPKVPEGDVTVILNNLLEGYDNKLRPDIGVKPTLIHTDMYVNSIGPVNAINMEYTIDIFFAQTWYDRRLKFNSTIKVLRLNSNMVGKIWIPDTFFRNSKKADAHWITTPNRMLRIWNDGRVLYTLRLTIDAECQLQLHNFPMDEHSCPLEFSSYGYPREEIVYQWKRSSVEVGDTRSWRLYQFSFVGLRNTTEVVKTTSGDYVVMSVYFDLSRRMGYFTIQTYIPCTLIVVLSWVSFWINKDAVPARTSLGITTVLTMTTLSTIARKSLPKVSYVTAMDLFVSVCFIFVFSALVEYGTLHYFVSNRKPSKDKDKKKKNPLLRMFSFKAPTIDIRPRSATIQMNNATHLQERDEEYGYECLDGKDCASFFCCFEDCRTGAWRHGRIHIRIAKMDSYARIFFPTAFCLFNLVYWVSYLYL
Chain of Gamma-aminobutyric acid receptor subunit alpha-1/alpha-2/beta-2/gamma-2 (P47869 whole entry): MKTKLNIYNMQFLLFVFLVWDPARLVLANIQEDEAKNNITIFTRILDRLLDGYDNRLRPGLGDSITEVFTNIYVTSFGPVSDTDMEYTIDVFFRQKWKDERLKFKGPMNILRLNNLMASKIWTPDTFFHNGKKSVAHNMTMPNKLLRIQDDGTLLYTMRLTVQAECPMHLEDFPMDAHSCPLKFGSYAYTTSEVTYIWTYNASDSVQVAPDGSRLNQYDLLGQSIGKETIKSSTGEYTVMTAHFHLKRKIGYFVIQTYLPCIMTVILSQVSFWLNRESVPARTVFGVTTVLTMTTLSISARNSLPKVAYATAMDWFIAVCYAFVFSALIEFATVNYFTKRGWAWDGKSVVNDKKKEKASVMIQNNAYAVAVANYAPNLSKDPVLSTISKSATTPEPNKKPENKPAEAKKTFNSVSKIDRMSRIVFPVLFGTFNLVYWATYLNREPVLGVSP

[7] = target: T3, Peroxisome proliferator-activated receptor gamma (Homo sapiens, UniProt P37231); format: functional
T3 sequence (P37231 whole entry): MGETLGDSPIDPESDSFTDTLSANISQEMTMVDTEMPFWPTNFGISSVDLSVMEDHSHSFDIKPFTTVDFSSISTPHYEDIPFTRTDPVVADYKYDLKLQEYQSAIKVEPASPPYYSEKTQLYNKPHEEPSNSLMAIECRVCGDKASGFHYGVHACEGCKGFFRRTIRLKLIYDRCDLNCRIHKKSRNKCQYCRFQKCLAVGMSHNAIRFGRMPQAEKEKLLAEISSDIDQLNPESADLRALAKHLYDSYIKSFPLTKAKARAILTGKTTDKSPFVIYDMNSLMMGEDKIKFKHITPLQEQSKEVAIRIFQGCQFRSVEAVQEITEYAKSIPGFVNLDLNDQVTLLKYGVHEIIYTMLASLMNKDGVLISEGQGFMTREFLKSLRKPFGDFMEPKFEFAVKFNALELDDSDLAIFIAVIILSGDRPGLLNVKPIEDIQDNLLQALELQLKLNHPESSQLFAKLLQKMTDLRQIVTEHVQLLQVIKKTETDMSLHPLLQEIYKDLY

[8] = target: T4, Estrogen receptor (Homo sapiens, UniProt P03372); format: functional
T4 sequence (P03372 whole entry): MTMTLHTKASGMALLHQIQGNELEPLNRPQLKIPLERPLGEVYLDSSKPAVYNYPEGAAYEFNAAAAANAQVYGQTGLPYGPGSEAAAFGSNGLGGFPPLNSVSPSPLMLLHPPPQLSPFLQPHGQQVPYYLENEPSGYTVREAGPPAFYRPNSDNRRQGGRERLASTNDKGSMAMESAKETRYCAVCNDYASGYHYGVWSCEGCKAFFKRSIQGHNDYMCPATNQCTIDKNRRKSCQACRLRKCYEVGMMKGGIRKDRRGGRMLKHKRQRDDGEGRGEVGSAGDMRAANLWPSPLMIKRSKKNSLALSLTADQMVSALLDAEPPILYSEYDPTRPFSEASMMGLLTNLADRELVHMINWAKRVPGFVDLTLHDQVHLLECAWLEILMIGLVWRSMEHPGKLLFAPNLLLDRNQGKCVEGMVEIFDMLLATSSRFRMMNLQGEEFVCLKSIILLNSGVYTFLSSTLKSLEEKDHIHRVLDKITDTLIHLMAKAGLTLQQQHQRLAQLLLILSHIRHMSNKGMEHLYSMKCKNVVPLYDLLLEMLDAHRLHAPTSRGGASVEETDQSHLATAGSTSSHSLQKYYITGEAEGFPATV

[9] = target: T4, Estrogen receptor; format: functional; remark: listed apart in the source
Note: assay procedure not described here.

SMILES	AC50 [1] [µM]	AC50 [2] [µM]	AC50 [3] [µM]	AC50 [4] [µM]	AC50 [5] [µM]	further results
Clc1ccc2nsnc2c1NC1=NCCN1 [TIZANIDINE]	> 10	> 10	> 10	> 30	> 30	–
COc1ccccc1OCC(O)CN1CCN(CC(=O)Nc2c(C)cccc2C)CC1 (stereo not given) [RANOLAZINE]	–	–	–	–	> 30	–
CCOC(=O)[C@H](CCc1ccccc1)N[C@@H](C)C(=O)N1[C@H](C(=O)O)C[C@@H]2CCC[C@@H]21	> 10	> 10	> 10	> 30	–	–
C[C@@H](O)[C@H]1C(=O)N2C(C(=O)O)=C(S[C@@H]3CN[C@H](C(=O)N(C)C)C3)[C@H](C)[C@H]12 [MEROPENEM]	–	–	–	–	–	AC50 [6]: > 300 µM; AC50 [7]: > 300 µM
CN(C)/N=N/c1[nH]cnc1C(N)=O [DACARBAZINE]	–	–	–	–	> 30	–
CS(=O)(=O)c1ccc(C2=C(c3ccccc3)C(=O)OC2)cc1 [ROFECOXIB]	> 10	> 10	> 10	> 30	> 30	–
C[N+]1(C)CCC(OC(=O)C(O)(c2ccccc2)C2CCCC2)C1 (stereo not given) [GLYCOPYRRONIUM BROMIDE]	–	–	–	> 30	–	–
C[C@]12CCC(=O)C=C1CC[C@@H]1[C@@H]2[C@@H](O)C[C@@]2(C)[C@H]1CC[C@]2(O)C(=O)CO [HYDROCORTISONE]	> 10	> 10	> 10	7.61	–	–
CN1C(=O)CCS(=O)(=O)C1c1ccc(Cl)cc1 (stereo not given) [CHLORMEZANONE]	–	–	–	–	> 30	–
Cc1cn([C@H]2C[C@H](N=[N+]=[N-])[C@@H](CO)O2)c(=O)[nH]c1=O [ZIDOVUDINE]	> 10	> 10	> 10	> 30	–	–
Cc1nc([N+](=O)[O-])cn1-c1ccc([N+](=O)[O-])cc1 [NITREFAZOLE]	–	–	–	–	> 30	–
O=C1Nc2ccc(Cl)cc2[C@@](C#CC2CC2)(C(F)(F)F)O1 [EFAVIRENZ]	–	–	–	–	–	AC50 [8]: > 30 µM; AC50 [7]: > 30 µM; AC50 [9]: > 30 µM
O=C(O[C@H]1C[C@H]2CC[C@@H](C1)[N+]21CCCC1)C(O)(c1ccccc1)c1ccccc1 [TROSPIUM]	–	–	–	–	> 30	–
CC[C@H]1[C@@H](O)[C@@H]2[C@H](CC[C@]3(C)[C@@H]([C@H](C)CCC(=O)O)CC[C@@H]23)[C@@]2(C)CC[C@@H](O)C[C@@H]12 [OBETICHOLIC ACID]	–	–	–	–	> 30	–
CC(C)C[C@H]1C(=O)N2CCC[C@H]2[C@]2(O)O[C@](NC(=O)[C@@H]3C=C4c5cccc6[nH]c(Br)c(c56)C[C@H]4N(C)C3)(C(C)C)C(=O)N12 [BROMOCRIPTINE]	0.319	1.69	> 10	> 30	–	AC50 [6]: > 30 µM; AC50 [7]: > 30 µM
CC(=O)NCCCS(=O)(=O)O [ACAMPROSATE]	–	–	–	–	> 30	–
CCCSc1ccc2nc(NC(=O)OC)[nH]c2c1 [ALBENDAZOLE]	–	–	–	> 30	–	–
CC1=C(C(=O)O)N2C(=O)[C@@H](NC(=O)[C@H](N)c3ccccc3)[C@H]2SC1 [CEPHALEXIN ANHYDROUS]	> 10	> 10	–	> 30	–	–

SMILES	AC50 [1] [µM]	AC50 [2] [µM]	AC50 [3] [µM]	AC50 [4] [µM]	AC50 [5] [µM]	further results
C=CCc1ccccc1OCC(O)CNC(C)C (stereo not given) [ALPRENOLOL]	–	–	–	–	> 30	–
COCCCN1CCC(NC(=O)c2cc(Cl)c(N)c3c2OCC3)CC1 [PRUCALOPRIDE]	–	–	–	–	–	AC50 [6]: > 30 µM; AC50 [7]: > 30 µM
Cc1cn([C@H]2C=C[C@@H](CO)O2)c(=O)[nH]c1=O [STAVUDINE]	> 10	> 10	> 10	> 30	–	–
NCC(CC(=O)O)c1ccc(Cl)cc1 (stereo not given) [BACLOFEN]	> 10	> 10	> 10	> 30	–	AC50 [6]: > 30 µM; AC50 [7]: > 30 µM
O=C(Cc1ccc(-c2ccccc2)cc1)Nc1ccccn1 [DIFENPIRAMIDE]	–	–	–	–	> 30	AC50 [6]: > 30 µM
CC(=O)Nc1ccc(O)cc1 [ACETAMINOPHEN]	–	–	–	–	–	AC50 [6]: > 30 µM
CC1(C)NC(=O)N(c2ccc([N+](=O)[O-])c(C(F)(F)F)c2)C1=O [NILUTAMIDE]	–	–	–	–	> 30	–
CC[C@H]1OC(=O)[C@H](C)[C@@H](O[C@H]2C[C@@](C)(OC)[C@@H](O)[C@H](C)O2)[C@H](C)[C@@H](O[C@@H]2O[C@H](C)C[C@H](N(C)C)[C@H]2O)[C@](C)(O)C[C@@H](C)CN(C)[C@H](C)[C@@H](O)[C@]1(C)O [AZITHROMYCIN]	> 10	> 10	> 10	> 30	–	–
CNC(=O)c1ccccc1Sc1ccc2c(/C=C/c3ccccn3)n[nH]c2c1 [AXITINIB]	–	–	–	> 30	–	AC50 [6]: > 30 µM
CCCCN1C[C@H](O)[C@@H](O)[C@H](O)[C@H]1CO	–	–	–	–	> 30	–
O=P1(NCCCl)OCCCN1CCCl (stereo not given) [IFOSFAMIDE]	–	–	–	–	> 30	–
COc1cc2nc(N(C)CCCNC(=O)C3CCCO3)nc(N)c2cc1OC (stereo not given) [ALFUZOSIN]	–	–	–	–	> 30	–
Nc1nc(NC2CC2)c2ncn([C@H]3C=C[C@@H](CO)C3)c2n1 [ABACAVIR]	–	–	–	–	> 30	AC50 [6]: > 30 µM
CN1C(C(=O)Nc2ccccn2)=C(O)c2sc(Cl)cc2S1(=O)=O [LORNOXICAM]	> 10	–	–	> 30	–	–
CCC(C)n1ncn(-c2ccc(N3CCN(c4ccc(OCC5COC(Cn6cncn6)(c6ccc(Cl)cc6Cl)O5)cc4)CC3)cc2)c1=O (stereo not given) [ITRACONAZOLE]	> 10	> 10	> 10	> 30	> 30	–
CO[C@H]1C[C@@H]2CC[C@@H](C)[C@@](O)(O2)C(=O)C(=O)N2CCCC[C@H]2C(=O)O[C@H]([C@H](C)C[C@@H]2CC[C@@H](O)[C@H](OC)C2)CC(=O)[C@H](C)/C=C(\C)[C@@H](O)[C@@H](OC)C(=O)[C@H](C)C[C@H](C)/C=C/C=C/C=C/1C [SIROLIMUS]	> 10	–	–	> 30	–	–
CN(C)CCC(c1ccc(Cl)cc1)c1ccccn1 (stereo not given) [CHLORPHENIRAMINE]	> 10	0.412	> 10	> 30	–	–
Cc1ccc(-c2cc(C(F)(F)F)nn2-c2ccc(S(N)(=O)=O)cc2)cc1 [CELECOXIB]	> 10	> 10	> 10	> 30	–	–
